Measured values published in patent US7795178B2, “Fungicidal active combinations spiroxamine, prothioconazole and tebuconazole” (Bayer CropScience AG, priority 2003, dated 2010).

Tests used:
Assay type in all cases: in vivo
[1] = test system: Erysiphe graminis f.sp.tritici; assay: Erysiphe test (wheat)/protective; conditions: protective, application rate 125 g/ha, evaluation 6 days after inoculation
Description: Erysiphe Test (Wheat)/Protective To produce a suitable preparation of active compound, a commercial formulation of active compound or active compound combination is diluted with water to the desired concentration. To test for protective activity, young plants are sprayed with the active compound preparation at the stated application rate. After the spray coating has dried on, the plants are dusted with spores of Erysiphe graminis f.sp.tritici. The plants are placed in a greenhouse at a temperature of about 20° C. and a relative atmospheric humidity of about 80% to promote the development of mildew pustules. Evaluation is carried out 6 days after the inoculation. 0% means an efficacy which corresponds to that of the control, whereas an efficacy of 100% means that no infection is observed.

[2] = test system: Leptosphaeria nodorum; assay: Leptosphaeria nodorum test (wheat)/curative; conditions: curative, application rate 500 g/ha, evaluation 12 days after inoculation
Description: Leptosphaeria nodorum Test (Wheat)/Curative To produce a suitable preparation of active compound, a commercial formulation of active compound or active compound combination is diluted with water to the desired concentration. To test for curative activity, young plants are sprayed with a conidia suspension of Leptosphaeria nodorum. The plants remain in an incubation cabin at 20° C. and 100% relative atmospheric humidity for 48 hours and are then sprayed with the active compound preparation at the stated application rate. The plants are placed in a greenhouse at a temperature of about 15° C. and a relative atmospheric humidity of about 80%. Evaluation is carried out 12 days after the inoculation. 0% means an efficacy which corresponds to that of the control, whereas an efficacy of 100% means that no infection is observed.

[3] = test system: Fusarium nivale var. majus; assay: Fusarium nivale (var. majus) test (wheat)/curative; conditions: curative, evaluation 11 days after inoculation
Description: Fusarium nivale (var. majus) Test (Wheat)/Curative To produce a suitable preparation of active compound, a commercial formulation of active compound or active compound combination is diluted with water to the desired concentration. To test for curative activity, young plants are sprayed with a conidia suspension of Fusarium nivale var. majus. The plants remain in an incubation cabin at 15° C. and 100% relative atmospheric humidity for 24 hours and are then sprayed with the active compound preparation at the stated application rate. After the spray coating has dried on, the plants remain in a greenhouse under transparent incubation hoods at a temperature of about 15° C. and a relative atmospheric humidity of about 100%. Evaluation is carried out 11 days after the inoculation. 0% means an efficacy which corresponds to that of the control, whereas an efficacy of 100% means that no infection is observed.

SMILES | Efficacy in % [1] | Efficacy in % [2] | Efficacy in % found ([3]; application rate 140 g/ha) | Efficacy in % found ([3]; application rate 55 g/ha)
CCCN(CC)CC1COC2(CCC(C(C)(C)C)CC2)O1 (stereo not drawn) [(I) spiroxamine, 8-tert-butyl-1,4-dioxaspiro[4.5]decan-2-ylmethyl(ethyl)(propyl)amine] | 33% | 0% | 17% | 
OC(Cc1ccccc1Cl)(Cn1nc[nH]c1=S)C1(Cl)CC1 (stereo not drawn) [(II) prothioconazole, prothioconazole] | 78% | 20% |  | 17%
CC(C)(C)C(O)(CCc1ccc(Cl)cc1)Cn1cncn1 (stereo not drawn) [(III) tebuconazole, tebuconazole] | 78% | 40% |  | 33%
